Consider 19 compounds from patent US12459951B2, “Compounds that interact with RAS superfamily proteins for treatment of cancers, inflammatory diseases, rasopathies, and fibrotic disease” (SHY Therapeutics, LLC, priority 2022, dated 2025).

Read-outs that look alike come from different tables or passages of the source.

Test [1] relates to Smad2/Smad3 phosphorylation. The test can be described thus: Phospho-Smad2/3 Inhibition Assay (western blot), Panc-1. In kind it is cell-based, human. The conditions noted are these: at 10 μM, Panc-1 pancreatic cancer cell line; starred symbols = activation. The procedure, abridged:
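Western blotting of lysates (15-50 μg protein) read phosphorylation of Smad2 Ser465/467 and Smad3 Ser423/425. Before lysis, Panc-1 cells got 1 h of 10 ng/ml TGF-b1 following 3 h compound exposure at 37° C (10 μM final, or serial dilutions for IC50, 0.3% DMSO) after overnight 0.5% FBS starvation.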

The test system of test [2] is MiaPaca-2 (expressing KRAS G12C mutant). The test can be described thus: Proliferation Assay (Cell Viability Assay). In kind it is cell-based. As to conditions: Homo sapiens, MIA PaCa-2. An outline of the steps:
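After 2–4 days' exposure at 37 °C, 5% CO2 to a single 10 μM final concentration or a dilution series (IC50), percent proliferation inhibition was derived from CellTiter 96 Aqueous One viability readings. The medium contained 0.3% DMSO and 10% FBS. KRAS G12C MiaPaca-2 cells were plated at 2000–5000/well the day before.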

In test [3] the test system is TNF-alpha. The test can be described thus: TNF-alpha Quantification Assay (ELISA), LPS-stimulated RAW 264.7. As to conditions: Mus musculus, RAW264.7; at 10 μM; read-out: TNFα: % inh. In kind it is cell-based.
Where [4] appears, read: read-out: Proliferation in MiaPaca-2: IC50.
[5] abbreviates: Proliferation assay, MiaPaca-2, read-out: MiaPaca-2 IC50 (nM) Pancreatic.

Consider `COc1cc(-c2cn3nc(-c4nccn4C)nc(N[C@H]4C[C@H](OC)C4)c3c2C)ccn1` [Compound 160, N-((1r,3r)-3-Methoxycyclobutyl)-6-(2-methoxypyridin-4-yl)-5-methyl-2-(1-methyl-1H-imidazol-2-yl)pyrrolo[2,1-f][1,2,4]triazin-4-amine], for which, in test [1], the “% inh of Smad2/3 phosphorylation in Panc-1” value (“% inh” for short) is listed as “A* (A* = 1-25% activation)”. Also, the IC50 in test [2] (setting [4]) was > 1000 nM. Moreover, the inhibition at 10 µM in test [3] fell in the range of 25 to 49%.

Turning to `CO[C@H]1C[C@@H](Nc2nc(-c3nccn3C)nn3cc(-c4cccnc4)c(C)c23)C1` [Compound 153, N-((1s,3s)-3-methoxy-cyclobutyl)-5-methyl-2-(1-methyl-1H-imidazol-2-yl)-6-(pyridin-3-yl)pyrrolo[2,1-f][1,2,4]triazin-4-amine], in test [1], the “% inh” value is given as “C (C = 46-75% inhibition)”. Moreover, the IC50 in test [2] (setting [4]) is > 1000 nM. The inhibition at 10 µM in test [3] is 0%.

As for `CO[C@H]1CC[C@@H](Nc2nc(-c3nccn3C)nn3cc(-c4cccnc4)c(C)c23)C1` (racemic) [Compound 155, rac N-((1R,3S)-3-methoxy-cyclopentyl)-5-methyl-2-(1-methyl-1H-imidazol-2-yl)-6-(pyridin-3-yl)pyrrolo[2,1-f][1,2,4]triazin-4-amine], in test [1], the “% inh” value is “A (A = 1-25% inhibition)”. For the same compound, the IC50 in test [2] (setting [4]) was > 1000 nM. The inhibition at 10 µM in test [3] was determined as 0%.

`Cc1c(-c2ccn(C)n2)cn2nc(-c3nccn3C)nc(Cl)c12` [Compound 99, 4-Chloro-5-methyl-2-(1-methyl-1H-imidazol-2-yl)-6-(1-methyl-1H-pyrazol-3-yl)pyrrolo[2,1-f][1,2,4]triazine]: the “% inh” value in test [1] is listed as “D (D = 76-100% inhibition)”. Also, the IC50 in test [2] (setting [4]) is > 1000 nM. In addition, the inhibition at 10 µM in test [3] was 75 to 100%.

On to `Cc1c(-c2ccn(C3CC3)n2)cn2nc(-c3nccn3C)nc(Nc3cc(OC(F)F)ccn3)c12` [Compound 139, 6-(1-Cyclopropyl-1H-pyrazol-3-yl)-N-(4-(difluoromethoxy)pyridin-2-yl)-5-methyl-2-(1-methyl-1H-imidazol-2-yl)pyrrolo[2,1-f][1,2,4]triazin-4-amine], for which, in test [1], the “% inh” value is listed as “A* (A* = 1-25% activation)”. Further, the IC50 in test [2] (setting [4]) is < 150 nM. Besides, in test [3], the inhibition at 10 µM lay within 1 to 24%.

For `COCCO[C@H]1C[C@H](Nc2nc(-c3nccn3C)nn3cc(-c4ccn(C)n4)c(C)c23)C1` [Compound 130, N-((1r,3r)-3-(2-Methoxyethoxy)cyclobutyl)-5-methyl-2-(1-methyl-1H-imidazol-2-yl)-6-(1-methyl-1H-pyrazol-3-yl)pyrrolo[2,1-f][1,2,4]triazin-4-amine], the “% inh” value in test [1] is recorded as “C (C = 46-75% inhibition)”. Besides, the IC50 in test [2] (setting [4]) is > 1000 nM. Further, the inhibition at 10 µM in test [3] lay in the range of 1 to 24%.

Turning to `Cc1c(-c2ccn(C3CC3)n2)cn2nc(-c3nccn3C)nc(Nc3ccccn3)c12` [Compound 143, 6-(1-Cyclopropyl-1H-pyrazol-3-yl)-5-methyl-2-(1-methyl-1H-imidazol-2-yl)-N-(pyridin-2-yl)pyrrolo[2,1-f][1,2,4]triazin-4-amine], the “% inh” value in test [1] was “A (A = 1-25% inhibition)”. In test [2] (setting [4]), the IC50 was < 150 nM. For the same compound, the inhibition at 10 µM in test [3] fell in the range of 50 to 74%.

As to `COc1cnc(Nc2nc(-c3nccn3C)nn3cc(-c4ccn(C)n4)c(C)c23)nc1.Cl` [Compound 117, N-(5-Methoxypyrimidin-2-yl)-5-methyl-2-(1-methyl-1H-imidazol-2-yl)-6-(1-methyl-1H-pyrazol-3-yl)pyrrolo[2,1-f][1,2,4]triazin-4-amine hydrochloride salt], in test [1], the “% inh” value is “A (A = 1-25% inhibition)”. Moreover, the IC50 in test [2] (setting [4]) is < 150 nM. Also, the inhibition at 10 µM in test [3] lay within 1 to 24%.

On to `COc1cccnc1Nc1nc(-c2nccn2C)nn2cc(-c3ccn(C)n3)c(C)c12` [Compound 112, N-(3-Methoxypyridin-2-yl)-5-methyl-2-(1-methyl-1H-imidazol-2-yl)-6-(1-methyl-1H-pyrazol-3-yl)pyrrolo[2,1-f][1,2,4]triazin-4-amine], for which the “% inh” value in test [1] is on record as “D* (D* = 76-100% activation)”. The IC50 in test [2] (setting [4]) is < 150 nM. Further, the inhibition at 10 µM in test [3] was 0%.

As to `Cc1c(-c2ccn(C)n2)cn2nc(-c3nccn3C)nc(Nc3cc4n(n3)CCC4)c12` [Compound 100, N-(5,6-Dihydro-4H-pyrrolo[1,2-b]pyrazol-2-yl)-5-methyl-2-(1-methyl-1H-imidazol-2-yl)-6-(1-methyl-1H-pyrazol-3-yl)pyrrolo[2,1-f][1,2,4]triazin-4-amine], the “% inh” value in test [1] was “C* (C* = 46-75% activation)”. Moreover, the values for the IC50 in test [2] (setting [5]) and in test [2] (setting [4]) were 1 to 10 nM and < 150 nM, respectively. Besides, the inhibition at 10 µM in test [3] amounted to 0%.

Consider `Cc1c(-c2ccn(C)n2)cn2nc(-c3nccn3C)nc(Nc3cc(C4CC4)[nH]n3)c12` [Compound 104, N-(5-Cyclopropyl-1H-pyrazol-3-yl)-5-methyl-2-(1-methyl-1H-imidazol-2-yl)-6-(1-methyl-1H-pyrazol-3-yl)pyrrolo[2,1-f][1,2,4]triazin-4-amine], for which the “% inh” value in test [1] was “D* (D* = 76-100% activation)”. In addition, the results for the IC50 in test [2] (setting [5]) and in test [2] (setting [4]) were 1 to 10 nM and < 150 nM, respectively. Further, in test [3], the inhibition at 10 µM was 0%.

For the compound `COCCO[C@H]1C[C@H](Nc2nc(-c3nccn3C)nn3cc(-c4cccnc4)c(C)c23)C1` [Compound 152, N-((1r,3r)-3-(2-methoxyethoxy)cyclo-butyl)-5-methyl-2-(1-methyl-1H-imidazol-2-yl)-6-(pyridin-3-yl)pyrrolo[2,1-f][1,2,4]triazin-4-amine], the “% inh” value in test [1] is given as “A (A = 1-25% inhibition)”. Besides, the IC50 in test [2] (setting [4]) is > 1000 nM. Besides, the inhibition at 10 µM in test [3] was found to be 0%.

Turning to `Cc1c(-c2ccn(C)n2)cn2nc(-c3nccn3C)nc(Nc3cc(OCC(F)(F)F)ccn3)c12` [Compound 129, 5-Methyl-2-(1-methyl-1H-imidazol-2-yl)-6-(1-methyl-1H-pyrazol-3-yl)-N-(4-(2,2,2-trifluoroethoxy)pyridin-2-yl)pyrrolo[2,1-f][1,2,4]triazin-4-amine], the “% inh” value in test [1] was “D* (D* = 76-100% activation)”. Also, the IC50 in test [2] (setting [4]) was < 150 nM. Further, in test [3], the inhibition at 10 µM lay in the range of 1 to 24%.

With `COCCO[C@H]1C[C@H](Nc2nc(-c3nccn3C)nn3cc(-c4ccnc(OC)c4)c(C)c23)C1` [Compound 161, N-((1r,3r)-3-(2-Methoxy-ethoxy)cyclo-butyl)-6-(2-methoxy-pyridin-4-yl)-5-methyl-2-(1-methyl-1H-imidazol-2-yl)pyrrolo[2,1-f][1,2,4]triazin-4-amine], the “% inh” value in test [1] was “B (B = 26-45% inhibition)”. In addition, the IC50 in test [2] (setting [4]) was > 1000 nM. Moreover, the inhibition at 10 µM in test [3] was in the range of 50 to 74%.

As to `Cc1c(-c2ccn(C3CC3)n2)cn2nc(-c3nccn3C)nc(Nc3cc(OCCN(C)C)ccn3)c12` [Compound 147, 6-(1-Cyclopropyl-1H-pyrazol-3-yl)-N-(4-(2-(dimethylamino)ethoxy)pyridin-2-yl)-5-methyl-2-(1-methyl-1H-imidazol-2-yl)pyrrolo[2,1-f][1,2,4]triazin-4-amine], the “% inh” value in test [1] is on record as “C (C = 46-75% inhibition)”. The IC50 in test [2] (setting [4]) was > 1000 nM. The inhibition at 10 µM in test [3] is 1 to 24%.

In the case of `Cc1c(-c2ccn(C)n2)cn2nc(-c3nccn3C)nc(Nc3cc4n(n3)CCO4)c12` [Compound 124, N-(5-Methyl-2-(1-methyl-1H-imidazol-2-yl)-6-(1-methyl-1H-pyrazol-3-yl)pyrrolo[2,1-f][1,2,4]triazin-4-yl)-2,3-dihydropyrazolo[5,1-b]oxazol-6-amine], in test [1], the “% inh” value is listed as “A (A = 1-25% inhibition)”. In addition, the IC50 in test [2] (setting [5]) is 1 to 10 nM; in test [2] (setting [4]), < 150 nM. In addition, the inhibition at 10 µM in test [3] was 1 to 24%.

As for `COc1ccnc(Nc2nc(-c3nccn3C)nn3cc(-c4ccn(C5CC5)n4)c(C)c23)c1` [Compound 137, 6-(1-Cyclopropyl-1H-pyrazol-3-yl)-N-(4-methoxypyridin-2-yl)-5-methyl-2-(1-methyl-1H-imidazol-2-yl)pyrrolo[2,1-f][1,2,4]triazin-4-amine], the “% inh” value in test [1] is on record as “C (C = 46-75% inhibition)”. In test [2] (setting [4]), the IC50 is < 150 nM. In test [3], the inhibition at 10 µM fell in the range of 1 to 24%.

For the compound `Cc1c(-c2ccn(C3CC3)n2)cn2nc(-c3nccn3C)nc(Nc3cc(OC4CC4)ccn3)c12` [Compound 142, N-(4-Cyclopropoxypyridin-2-yl)-6-(1-cyclopropyl-1H-pyrazol-3-yl)-5-methyl-2-(1-methyl-1H-imidazol-2-yl)pyrrolo[2,1-f][1,2,4]triazin-4-amine], in test [1], the “% inh” value is “C (C = 46-75% inhibition)”. In addition, in test [2] (setting [4]), the IC50 is < 150 nM. In test [3], the inhibition at 10 µM was found to be 0%.

For the compound `COc1cc(Nc2nc(-c3nccn3C)nn3cc(-c4ccn(C5CC5)n4)c(C)c23)ncn1` [Compound 135, 6-(1-Cyclopropyl-1H-pyrazol-3-yl)-N-(6-methoxypyrimidin-4-yl)-5-methyl-2-(1-methyl-1H-imidazol-2-yl)pyrrolo[2,1-f][1,2,4]triazin-4-amine], the “% inh” value in test [1] is “A* (A* = 1-25% activation)”. In addition, in test [2] (setting [4]), the IC50 is < 150 nM. In test [3], the inhibition at 10 µM lay within 1 to 24%.
